In patent US20250221966A1, “RXFP1 AGONISTS” (BRISTOL-MYERS SQUIBB COMPANY, priority 2021, published 2025):

Biological target: T1, human RXFP1 (Homo sapiens, UniProt Q9HBX9)
T1 construct: expressed in transfected cells
T1 sequence (Q9HBX9 1-757): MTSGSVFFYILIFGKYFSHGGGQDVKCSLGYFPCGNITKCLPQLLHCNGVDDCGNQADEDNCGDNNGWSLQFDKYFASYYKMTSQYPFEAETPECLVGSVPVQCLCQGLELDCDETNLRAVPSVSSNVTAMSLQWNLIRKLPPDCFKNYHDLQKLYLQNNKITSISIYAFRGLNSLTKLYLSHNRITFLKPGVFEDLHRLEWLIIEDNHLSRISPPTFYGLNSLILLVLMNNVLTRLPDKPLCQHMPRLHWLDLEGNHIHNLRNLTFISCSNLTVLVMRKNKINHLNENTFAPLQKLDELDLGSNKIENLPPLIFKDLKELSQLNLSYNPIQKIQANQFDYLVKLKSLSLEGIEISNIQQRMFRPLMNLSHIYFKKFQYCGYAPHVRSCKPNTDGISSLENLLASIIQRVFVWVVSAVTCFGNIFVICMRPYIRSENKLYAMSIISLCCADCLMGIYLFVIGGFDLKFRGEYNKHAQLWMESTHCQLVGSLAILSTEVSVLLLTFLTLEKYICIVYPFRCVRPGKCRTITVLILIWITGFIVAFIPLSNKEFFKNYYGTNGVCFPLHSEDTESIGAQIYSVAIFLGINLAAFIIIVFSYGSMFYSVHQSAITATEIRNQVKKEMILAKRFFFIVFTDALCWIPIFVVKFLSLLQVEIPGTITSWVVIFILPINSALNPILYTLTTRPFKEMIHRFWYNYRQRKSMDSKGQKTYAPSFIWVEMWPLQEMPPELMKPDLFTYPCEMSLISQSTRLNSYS
Experiment: RXFP1 cAMP assay (hRXFP1 HEK293 cAMP assay, HTRF)
Format: cell-based
Details: HEK293 cells stably expressing human RXFP1, 30 min at room temperature, read-out: cAMP hRXFP1 HEK293 Assay EC50
How it was run: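 Potency and activity come from a four-parameter logistic fit of cAMP against compound concentration, tested from 0.010 nM up to 50 μM. The assay uses HEK293 cells stably expressing human RXFP1, incubated 30 min at ambient temperature with phosphodiesterase inhibitor IBMX present.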

EC50	SMILES
1.1 nM	COCCCOc1c(F)cc(C2=NOC3COCC23)cc1C(=O)N[C@H]1[C@@H](C(=O)Nc2ccc(F)c(C(F)(F)F)c2)[C@H]2CC[C@@H]1/C2=C\C1CC1 (stereo partly shown) [compound 778]
230 nM	COc1cc(F)c(F)cc1C(=O)N[C@@H]1C2CCC(/C2=C/Br)[C@@H]1C(=O)Nc1ccc(F)c(C(F)(F)F)c1 (stereo partly shown) [Example 11]
191 nM	COc1ccc(C2CCCN2C(=O)CCO)cc1C(=O)N[C@@H]1C2CCC(C2=CC2CC2)[C@@H]1C(=O)Nc1ccc(F)c(C(F)(F)F)c1 (stereo partly shown) [compound 634]
477 nM	COc1ccc(C2=NOC3COCC23)cc1C(=O)N[C@H]1[C@@H](C(=O)NCc2c(C)noc2C)[C@H]2CC[C@@H]1/C2=C\C1CC1 (stereo partly shown) [compound 673]
16 nM	COc1ccc(-c2ccnc(N3CCOCC3)c2F)cc1C(=O)N[C@@H]1C2CCC(/C2=C/C2CC2)[C@@H]1C(=O)Nc1ccc(F)c(C(F)(F)F)c1 (stereo partly shown) [compound 274]
45 nM	CNC(=O)c1ccc(-c2ccc(OC)c(C(=O)N[C@@H]3C4CCC(/C4=C/c4ccccc4)[C@@H]3C(=O)Nc3ccc(F)c(C(F)(F)F)c3)c2)c(F)c1 (stereo partly shown) [compound 196]
190 nM	COc1ccc(C2=NOC3COCC23)cc1C(=O)N[C@H]1[C@@H](C(=O)NC(C)(C)C#N)[C@H]2CC[C@@H]1/C2=C\C1CC1 (stereo partly shown) [compound 633]
1 nM	COc1ccc(-c2cc(C(OC(=O)NC(C)(C)C)C(F)(F)F)ccc2F)cc1C(=O)N[C@@H]1C2CCC(/C2=C/C2CC2)[C@@H]1C(=O)Nc1ccc(F)c(C(F)(F)F)c1 (stereo partly shown) [compound 210]
15 nM	COc1ncc(-c2ccc(OC)c(C(=O)N[C@@H]3C4CCC(/C4=C/C4CC4)[C@@H]3C(=O)Nc3ccc(F)c(C(F)(F)F)c3)c2)cn1 (stereo partly shown) [compound 279]
17 nM	COc1ccc(-c2cc(NC(=O)CC(=O)O)ccc2F)cc1C(=O)N[C@@H]1C2CCC(/C2=C/c2cnoc2)[C@@H]1C(=O)Nc1ccc(F)c(C(F)(F)F)c1 (stereo partly shown) [compound 175]
82 nM	COc1ccc(C2=NOC3COCC23)cc1C(=O)N[C@H]1[C@@H](C(=O)NCc2ccccc2OC(F)(F)F)[C@H]2CC[C@@H]1/C2=C\C1CC1 (stereo partly shown) [compound 588]
4180 nM	COc1ccc(C2=NOC3COCC23)cc1C(=O)N[C@H]1[C@@H](C(=O)NCc2ccn(C)n2)[C@H]2CC[C@@H]1/C2=C\C1CC1 (stereo partly shown) [compound 722]
32 nM	COc1ccc(-c2cccnc2)cc1C(=O)N[C@@H]1C2CCC(/C2=C/C2CC2)[C@@H]1C(=O)Nc1ccc(F)c(C(F)(F)F)c1 (stereo partly shown) [compound 278]
2900 nM	COc1ccc(N2CCCC(C(=O)O)C2)cc1C(=O)N[C@@H]1C2CCC(C2=C(C)C)[C@@H]1C(=O)Nc1ccc(F)c(C(F)(F)F)c1 (stereo partly shown) [compound 142]
9.5 nM	COc1ccc(C2=NOC3CC(CO)CC23)cc1C(=O)N[C@H]1[C@@H](C(=O)NC2CCCC2)[C@H]2CC[C@@H]1/C2=C\C1CC1 (stereo partly shown) [compound 493]
139 nM	COc1ccc(C2=NOC(C3(O)CCCCC3)C2)cc1C(=O)N[C@H]1[C@@H](C(=O)Nc2ccc(F)c(C(F)(F)F)c2)[C@H]2CC[C@@H]1/C2=C\C1CC1 (single isomer, unassigned) [compound 615]
1600 nM	COc1ccc(-c2c(C)noc2C)cc1C(=O)N[C@H]1[C@@H](C(=O)Nc2ccc(F)c(C(F)(F)F)c2)[C@H]2CC[C@@H]1C2=C(C)C [compound 104]
78.3 nM	COc1ccc(C2=NOC3COCC23)cc1C(=O)N[C@H]1[C@@H](C(=O)NCc2ccccc2C)[C@H]2CC[C@@H]1/C2=C\C1CC1 (stereo partly shown) [compound 585]
15 nM	COc1cc(F)c(F)cc1C(=O)N[C@@H]1C2CCC(/C2=C/C=C/CCCc2ccccc2)[C@@H]1C(=O)Nc1ccc(F)c(C(F)(F)F)c1 (stereo partly shown) [compound 37]
3.6 nM	COc1ccc(-c2cc(C3=NOC4CC(CO)CC34)ccc2F)cc1C(=O)N[C@H]1[C@@H](C(=O)Nc2ccc(F)c(C(F)(F)F)c2)[C@H]2CC[C@@H]1/C2=C\C1CCCC1 (stereo partly shown) [compound 949]
76 nM	COc1ccc(-c2ccc(C(=O)NCCN3CCOCC3)cc2F)cc1C(=O)N[C@@H]1C2CCC(/C2=C/c2ccccc2)[C@@H]1C(=O)Nc1ccc(F)c(C(F)(F)F)c1 (stereo partly shown) [compound 198]

EC50	SMILES
54 nM	COc1ccc(C2=NOC(C(=O)O)C2)cc1C(=O)N[C@@H]1C2CCC(/C2=C/C(F)(F)F)[C@@H]1C(=O)Nc1ccc(F)c(C(F)(F)F)c1 (stereo partly shown) [compound 389]
27 nM	COc1cc(F)c(F)cc1C(=O)N[C@@H]1C2CCC(/C2=C/c2ccc(F)cc2)[C@@H]1C(=O)Nc1ccc(F)c(C(F)(F)F)c1 (stereo partly shown) [compound 41]
3.2 nM	CCCOc1c(F)cc(C2=NOC3CC(CO)CC23)cc1C(=O)N[C@H]1[C@@H](C(=O)Nc2ccc(F)c(C(F)(F)F)c2)[C@H]2CC[C@@H]1/C2=C\C1CC1 (stereo partly shown) [compound 782]
172 nM	COc1ccc(C2=NOC3COCC23)cc1C(=O)N[C@H]1[C@@H](C(=O)Nc2ccc(F)c(C(F)(F)F)c2)[C@H]2CC[C@@H]1/C2=C\C1CC1 (stereo partly drawn) [Example 417, (1R,2S,3R,4R,Z)-7-(cyclopropylmethylene)-N-(4-fluoro-3-(trifluoromethyl)phenyl)-3-(2-methoxy-5-(3a,4,6,6a-tetrahydrofuro[3,4-d]isoxazol-3-yl)benzamido)bicyclo[2.2.1]heptane-2-carboxamide]
2970 nM	COc1ccc(-c2cc(C(=O)O)ccc2F)cc1C(=O)N[C@@H]1C2CCC(/C2=C/C2CC2)[C@@H]1C(=O)NCc1ccccc1 (stereo partly shown) [compound 260]
0.9 nM	COc1ccc(-c2cc(C(COC(=O)Nc3ccccc3)C(F)(F)F)ccc2F)cc1C(=O)N[C@H]1[C@@H](C(=O)Nc2ccc(F)c(C(F)(F)F)c2)[C@H]2CC[C@@H]1/C2=C\C1CC1 (stereo partly shown) [compound 876]
3.6 nM	COc1ccc(C2=NOC3CC(C(O)C(F)(F)F)CC23)cc1C(=O)N[C@H]1[C@@H](C(=O)Nc2ccc(F)c(C(F)(F)F)c2)[C@H]2CC[C@@H]1/C2=C\C1CC1 (stereo partly shown) [compound 853]
67 nM	CCOC(=O)Cn1cc(-c2ccc(OC)c(C(=O)N[C@@H]3C4CCC(/C4=C/c4ccccc4)[C@@H]3C(=O)Nc3ccc(F)c(C(F)(F)F)c3)c2)cn1 (stereo partly shown) [compound 339]
582 nM	COc1ccc(C2=NOC3C(O)CC(O)C23)cc1C(=O)N[C@H]1[C@@H](C(=O)Nc2ccc(F)c(C(F)(F)F)c2)[C@H]2CC[C@@H]1/C2=C\C1CC1 (single isomer, unassigned) [compound 680]
4.7 nM	COc1ccc(-c2cc([C@H](OC(=O)NC3CCC3)C(F)(F)F)ccc2F)cc1C(=O)N[C@@H]1C2CCC(/C2=C/CCC(F)(F)F)[C@@H]1C(=O)Nc1ccc(F)c(C(F)(F)F)c1 (stereo partly shown) [compound 923]
1100 nM	CC(C)=C1C2CCC1[C@H](C(=O)Nc1ccc(F)c(C(F)(F)F)c1)[C@@H]2NC(=O)c1ccccc1OC(C)C (stereo partly shown) [compound 115]
1560 nM	COc1ccc(C2=NOC3(C2)CC(CO)C3)cc1C(=O)N[C@H]1[C@@H](C(=O)Nc2ccc(F)c(C(F)(F)F)c2)[C@H]2CC[C@@H]1/C2=C\C1CC1 (single isomer, unassigned) [compound 711]
87 nM	COc1ccc(-c2cc(CC(=O)O)ccc2F)cc1C(=O)N[C@@H]1C2CCC(C2=C(C)C)[C@@H]1C(=O)Nc1ccc(F)c(C(F)(F)F)c1 (stereo partly shown) [compound 155]
4380 nM	COc1ccc(-c2cc(C(=O)O)ccc2F)cc1C(=O)N[C@@H]1C2CCC(/C2=C/C2CC2)[C@@H]1C(=O)NC(C)c1nccs1 (stereo partly shown) [compound 309]
3.9 nM	COc1ccc(C2=NO[C@H]3C[C@H](CO)CN23)cc1C(=O)N[C@H]1[C@@H](C(=O)Nc2ccc(F)c(C(F)(F)F)c2)[C@H]2CC[C@@H]1/C2=C\C1CC1 [compound 854]
5 nM	COc1ccc(-c2ccnc3c2ncn3CC(=O)O)cc1C(=O)N[C@@H]1C2CCC(/C2=C/C(F)(F)F)[C@@H]1C(=O)Nc1ccc(F)c(C(F)(F)F)c1 (stereo partly shown) [compound 314]
180 nM	COc1ccc(-c2cc(C(=O)O)ccc2F)cc1C(=O)N[C@@H]1C2CCC(/C2=C/C2CC2)[C@@H]1C(=O)NC1CCC1 (stereo partly shown) [compound 202]
1010 nM	COc1ccc(C2CCCN2CC(C)(C)O)cc1C(=O)N[C@@H]1C2CCC(C2=CC2CC2)[C@@H]1C(=O)Nc1ccc(F)c(C(F)(F)F)c1 (stereo partly shown) [compound 698]
4.6 nM	COc1ccc(C2=NOC3CC(CO)CC23)cc1C(=O)N[C@H]1[C@@H](C(=O)Nc2ccc(F)c(C(F)(F)F)c2)[C@H]2CC[C@@H]1/C2=C\c1ccncn1 (stereo partly shown) [compound 809]
2270 nM	COc1ccc(-c2cc(C(=O)O)ccc2F)cc1C(=O)N[C@@H]1C2CCC(/C2=C/c2cn(Cc3ccccc3)nn2)[C@@H]1C(=O)Nc1ccc(F)c(C(F)(F)F)c1 (stereo partly shown) [compound 326]
16 nM	COc1ccc(-c2cc(C(N)=O)ccc2F)cc1C(=O)N[C@@H]1C2CCC(C2=C(C)C)[C@@H]1C(=O)Nc1ccc(F)c(C(F)(F)F)c1 (stereo partly shown) [Example 121]

Same assay, conditions: cAMP hRXFP1 HEK293 Assay EC50, HEK293 cells stably expressing human RXFP1, 30 min at room temperature

SMILES	EC50
COc1cc(F)c(F)cc1C(=O)N[C@@H]1[C@H](C(=O)Nc2ccc(F)c(C(F)(F)F)c2)[C@@H]2CC[C@H]1C2C(C)C (stereo partly shown) [compound 975]	1000 nM
